Where two headings read alike, the source gives them in different places.

For 34 compounds, Ki results are on record in patent publication US20090325933A1, “Pyrimidinone Derivatives and Their Use as a Drug” (Ipsen Pharma S.A.S., priority 2006, published 2009).

The test deals with T1, human CB2 receptors (Homo sapiens, UniProt P34972).
T1 construct: expressed in transfected cells; membrane preparations
Put plainly: Affinity for human CB2 cannabinoid receptors: inhibition of [3H]-CP55940 binding to transfected CHO-K1 cell membranes. The conditions noted are these: inhibition constant value range, [3H]-CP55940 1 nM, Cheng-Prusoff. How it is done: The affinity of the compounds of the present invention for the different sub-types of cannabinoid receptors was measured according to procedures analogous to those described hereafter for the human CB2 receptor.
Study of the Affinity of the Compounds for the Human CB2 Cannabinoid Receptors:
The affinity of the compounds of the invention for the human CB2 receptors is determined by measuring the inhibition of the binding of [^3H]-CP55940 to transfected CHO-K1 cell membrane preparations.
The CHO-K1 cells expressing the human CB2 receptors in stable fashion are cultured in an RPMI 1640 medium containing 10% foetal calf serum, 2 mM of glutamine, 100 U/ml of penicillin, 0.1 mg/ml of streptomycin and 0.5 mg/ml of G418. The cells are collected with 0.5 mM of EDTA and centrifuged at 500 g for 5 minutes at 4° C. The pellet is re-suspended in phosphate buffered saline medium (PBS) and centrifuged at 500 g for 5 minutes at 4° C. The pellet is re-suspended in a Tris 50 mM buffer medium at pH 7.4 and centrifuged at 500 g for 5 minutes at 4° C. The cells are lysed by sonication and centrifuged at 39,000 g for 10 minutes at 4° C. The pellet is re-suspended in the Tris 50 mM buffer medium at pH 7.4 and centrifuged at 50,000 g for 10 minutes at 4° C. The membranes obtained in this last pellet are stored at −80° C.
Measurement of the competitive inhibition of the binding of the [^3H]-CP55940 to the CB2 receptors is carried out in duplicate using 96-well polypropylene plates. The cell membranes (10 μg of proteins/well) are incubated with the [^3H]-CP55940 (1 nM) for 60 minutes at 25° C. in a Tris-HCl 50 mM buffer medium, pH 7.4, comprising 0.1% bovine serum albumin (BSA), 5 mM of MgCl2, and 50 μg/ml of bacitracin.
The bound [^3H]-CP55940 is separated from the free [^3H]-CP55940 by filtration through GF/C glass fibre filter plates (Unifilter, Packard) pre-impregnated with 0.1% polyethylenimine (P.E.I.), using a Filtermate 196 (Packard). The filters are washed with Tris-HCl 50 mM buffer, pH 7.4 at 0-4° C. and the radioactivity present is determined using a counter (Packard Top Count).
The specific binding is obtained by subtracting the non-specific binding (determined in the presence of 0.1 μM of WIN55212-2 from the total binding). The data are analyzed by computer-assisted non-linear regression (MDL). For each test, a Cheng-Prusoff correction is made in order to convert the IC50 to the inhibition constant, Ki.
where [L] is the concentration of the radioligand used in the test and Kd is the radioligand equilibrium dissociation constant.

T1 sequence (P34972 whole entry): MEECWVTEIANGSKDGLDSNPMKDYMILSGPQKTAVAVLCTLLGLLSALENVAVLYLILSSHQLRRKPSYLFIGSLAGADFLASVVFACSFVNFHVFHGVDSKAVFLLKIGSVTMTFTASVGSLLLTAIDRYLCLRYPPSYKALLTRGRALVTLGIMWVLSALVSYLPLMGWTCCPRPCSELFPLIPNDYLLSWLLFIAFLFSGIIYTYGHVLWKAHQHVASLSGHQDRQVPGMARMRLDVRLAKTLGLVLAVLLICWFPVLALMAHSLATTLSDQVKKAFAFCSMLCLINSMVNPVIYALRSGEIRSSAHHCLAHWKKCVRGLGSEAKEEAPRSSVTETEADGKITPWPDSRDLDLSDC

In general, Ki refers to a dissociation constant, usually derived from enzyme kinetics or from competition with a known ligand. Consider `O=c1c2sccc2nc(-c2ccc(-c3ccccc3)cc2)n1CCC1C[C@H]2CC[C@@H]1C2` (stereo partly drawn) [Example 59], for which the Ki (read-out: Ki < 5 μM) is less than 5 µM.

For `O=c1c2sccc2nc(-c2ccc(-c3ccccc3)cc2)n1CCN1CCCCC1` [Example 24], the Ki (read-out: Ki < 0.5 μM) is less than 0.5 µM and the inhibition constant (Ki) (read-out: Ki < 5 μM) is less than 5 µM. Regarding `CC1CCCC(C)N1CCn1c(-c2ccc(-c3ccccc3)cc2)nc2ccsc2c1=O` (stereo not drawn) [Example 72], the Ki (read-out: Ki < 5 μM) is less than 5 µM. In the case of `O=c1c2sccc2nc(-c2ccc(C3CCCCC3)cc2)n1CCN1CCCCCC1` [Example 38], the inhibitory constant (Ki) was less than 0.5 µM (read-out: Ki < 0.5 μM) and less than 5 µM (read-out: Ki < 5 μM). In the case of `COc1ccccc1CCn1c(-c2ccc(-c3ccccc3)cc2)nc2ccsc2c1=O` [Example 1], where the note is “read-out: Ki < 5 μM”, the Ki was less than 5 µM. Regarding `Cc1cc2nc(-c3ccc(-c4ccccc4Cl)cc3)n(CCN3CCCCC3)c(=O)c2s1` [Example 77], the Ki (read-out: Ki < 0.5 μM) is less than 0.5 µM and the Ki (read-out: Ki < 5 μM) was less than 5 µM.

For `Cc1cccc(-c2ccc(-c3nc4cc(C)sc4c(=O)n3CCN3CCCCC3)cc2)c1` [Example 84], the Ki (read-out: Ki < 0.5 μM) is less than 0.5 µM and the Ki (read-out: Ki < 5 μM) is less than 5 µM.

For the compound `O=c1c2sccc2nc(-c2ccc(-c3ccccc3)c(F)c2)n1CCN1CCCCC1` [Example 67], the Ki (read-out: Ki < 0.5 μM) is less than 0.5 µM and the Ki (read-out: Ki < 5 μM) is less than 5 µM. As to `O=c1c2sc3ccccc3c2nc(-c2ccc(-c3ccccc3)cc2)n1CCN1CCOCC1` [Example 45], the Ki (read-out: Ki < 5 μM) was less than 5 µM. For the compound `O=c1c2ccsc2nc(-c2ccc(-c3ccccc3)cc2)n1CCC1CCOCC1` [Example 47], the Ki (read-out: Ki < 5 μM) is less than 5 µM. Turning to `O=c1c2sccc2nc(-c2ccc(-c3ccccc3)cc2)n1CCc1cccnc1` [Example 14], for the setting “read-out: Ki < 5 μM”, the inhibition constant Ki is less than 5 µM.

For the compound `O=c1c2sccc2nc(-c2ccc(-c3ccccc3)cc2)n1CCC1CCOCC1` [Example 12], the Ki reads like this: (read-out: Ki < 0.5 μM) less than 0.5 µM; (read-out: Ki < 5 μM) less than 5 µM. For the compound `O=c1c2sccc2nc(-c2ccc(-c3cccc(F)c3)cc2)n1CCN1CCCCC1` [Example 63], the Ki is less than 0.5 µM (read-out: Ki < 0.5 μM) and less than 5 µM (read-out: Ki < 5 μM).

On to `Cc1cccc(-c2ccc(-c3nc4c(C)c(C)sc4c(=O)n3CCN3CCCCC3)cc2)c1` [Example 70], for which the Ki by setting is: (read-out: Ki < 0.5 μM) less than 0.5 µM; (read-out: Ki < 5 μM) less than 5 µM.

Regarding `O=c1c2sccc2nc(-c2ccc(-c3ccc(F)cc3)cc2)n1CCN1CCCCC1` [Example 73], the Ki reads like this: (read-out: Ki < 0.5 μM) less than 0.5 µM; (read-out: Ki < 5 μM) less than 5 µM.

Turning to `O=c1c2sccc2nc(-c2ccc(C3CCCCC3)cc2)n1CCN1CCOCC1` [Example 37], the inhibitory constant (Ki) by setting is: (read-out: Ki < 0.5 μM) less than 0.5 µM; (read-out: Ki < 5 μM) less than 5 µM. With `COc1cccc(-c2ccc(-c3nc4ccsc4c(=O)n3CCN3CCCCC3)cc2)c1` [Example 89], the inhibition constant Ki by setting is: (read-out: Ki < 0.5 μM) less than 0.5 µM; (read-out: Ki < 5 μM) less than 5 µM. As to `Cc1csc2c(=O)n(CCN3CCCCC3)c(-c3ccc(-c4ccccc4)cc3)nc12` [Example 46], the Ki is less than 0.5 µM (read-out: Ki < 0.5 μM) and less than 5 µM (read-out: Ki < 5 μM). Taken in the same sequence, the figures for `O=c1c2sccc2nc(-c2ccc(C3CCCCC3)cc2)n1CCC1CCCCC1` [Example 16] were less than 0.5 µM and less than 5 µM. Taken in the same sequence, the figures for `O=c1c2sccc2nc(-c2ccc(-c3cc(Cl)cc(Cl)c3)cc2)n1CCN1CCCCC1` [Example 92] were less than 0.5 µM and less than 5 µM. In the case of `O=c1c2sccc2nc(-c2ccc(-c3cccc(Cl)c3)cc2)n1CCN1CCCCC1` [Example 79], the Ki runs as follows: (read-out: Ki < 0.5 μM) less than 0.5 µM; (read-out: Ki < 5 μM) less than 5 µM.

Regarding `Cc1ccc(-c2ccc(-c3nc4ccsc4c(=O)n3CCN3CCCCC3)cc2)cc1` [Example 65], the Ki reads like this: (read-out: Ki < 0.5 μM) less than 0.5 µM; (read-out: Ki < 5 μM) less than 5 µM. Regarding `O=c1c2sccc2nc(-c2ccc(-c3cccs3)cc2)n1CCC1CCOCC1` [Example 19], where the note is “read-out: Ki < 5 μM”, the Ki is less than 5 µM. Same read-out and setting: the same measure for `O=c1c2occc2nc(-c2ccc(-c3ccccc3)cc2)n1CCN1CCCCC1` [Example 51]: less than 5 µM.

Take `O=c1c2sccc2nc(-c2ccc(-c3c(F)cccc3F)cc2)n1CCN1CCCCC1` [Example 82]: the inhibition constant (Ki) (read-out: Ki < 0.5 μM) is less than 0.5 µM and the Ki (read-out: Ki < 5 μM) was less than 5 µM. In the same order, the values of `O=c1c2sccc2nc(-c2ccc(-c3ccccc3)cc2)n1CCN1CCOCC1` [Example 27] are less than 0.5 µM and less than 5 µM. Taken in the same sequence, the figures for `Cc1cc2nc(-c3ccc(-c4cccc(C(F)(F)F)c4)cc3)n(CCN3CCCCC3)c(=O)c2s1` [Example 87] were less than 0.5 µM and less than 5 µM. Consider `O=C(c1ccccc1)c1ccc(-c2nc3ccsc3c(=O)n2CCN2CCOCC2)cc1` [Example 30], for which the Ki (read-out: Ki < 0.5 μM) is less than 0.5 µM and the Ki (read-out: Ki < 5 μM) is less than 5 µM.

Take `O=C1c2ccccc2C(=O)c2cc(-c3nc4ccsc4c(=O)n3CCN3CCCCC3)ccc21` [Example 25]: the Ki runs as follows: (read-out: Ki < 0.5 μM) less than 0.5 µM; (read-out: Ki < 5 μM) less than 5 µM. On to `O=c1c2sccc2nc(-c2ccc(-c3ccccc3Cl)cc2)n1CCN1CCCCC1` [Example 64], for which the Ki was less than 0.5 µM (read-out: Ki < 0.5 μM) and less than 5 µM (read-out: Ki < 5 μM). In the same order, the values of `Cc1cccc(-c2ccc(-c3nc4ccsc4c(=O)n3CCN3CCCCC3)cc2)c1` [Example 62] are less than 0.5 µM and less than 5 µM.

As to `O=c1c2sccc2nc(-c2ccc(-c3ccccc3F)cc2)n1CCN1CCCCC1` [Example 69], the Ki was less than 0.5 µM (read-out: Ki < 0.5 μM) and less than 5 µM (read-out: Ki < 5 μM).

`Cc1cc(C)cc(-c2ccc(-c3nc4ccsc4c(=O)n3CCN3CCCCC3)cc2)c1` [Example 80]: the Ki is, setting by setting: (read-out: Ki < 0.5 μM) less than 0.5 µM; (read-out: Ki < 5 μM) less than 5 µM.

Regarding `O=c1c2sccc2nc(-c2ccc(-c3ccccc3C(F)(F)F)cc2)n1CCN1CCCCC1` [Example 66], the Ki reads like this: (read-out: Ki < 0.5 μM) less than 0.5 µM; (read-out: Ki < 5 μM) less than 5 µM.
